# Measured values as given in patent publication US20170065667A1, “METHODS FOR SYNCHRONIZATION OF ESTROUS CYCLES AND OVULATION FOR FIXED TIME ARTIFICIAL INSEMINATION IN CATTLE” (Parnell Technologies Pty Ltd., priority 2014, published 2017).
# “And” between values parts separate entries of the source, which are not always exact repeats. Equal values may be shown once.
# Test system: lactating Holstein cows
# Experiment: Experiment 1: pregnancies per AI (P/AI) after one vs. two cloprostenol sodium injections in Double-Ovsynch, FTAI
# Type: in vivo, cattle
# Conditions: for P/AI: quartiles 2, 3 and 4 combined
# Description: An experiment was conducted to determine the effectiveness of the exogenous administration of hormones for synchronizing the estrous cycles of lactating dairy cattle and resulting pregnancy rates subsequent to FTAI. A total of 373 lactating Holstein cows (172 primiparous, 201 multiparous) were synchronized with a Double-Ovsynch program comprising a first or presynchronization Ovsynch phase followed by a second Ovsynch phase. All animals were synchronized using a GnRH composition (about 100 mcg of gonadorelin acetate per mL, GONAbreed®, Parnell Technologies Pty Ltd, Alexandria, Australia) and a PGF2α analog composition (about 250 mcg of cloprostenol sodium per mL, estroPLAN®, Parnell Technologies Pty Ltd, Alexandria, Australia). The first Ovsynch phase began at about 51 to about 57 days in milk where the cows received a first 1 mL intramuscular injection of a gonadorelin acetate composition. At about 58 to about 64 days in milk, the cows received a first 2 mL intramuscular injection of a cloprostenol sodium composition. At about 61 to about 67 days in milk, the cows received a second 1 mL intramuscular injection of a gonadorelin acetate composition concluding the first Ovsynch phase. The animals were then synchronized with a second Ovsynch phase comprising an Ovsynch-56 protocol beginning at about 68 to about 74 days in milk where the cows received a third 1 mL intramuscular injection of gonadorelin acetate composition. At about 75 to about 81 days in milk, the animals received a second 2 mL intramuscular injection of a cloprostenol sodium composition. At about 77 to about 83 days in milk (about 56 hours after the second injection of a cloprostenol sodium composition), the animals received a fourth 1 mL intramuscular injection of a gonadorelin acetate composition. And at about 78 to about 84 days in milk (about 16 hours after the fourth injection of the gonadorelin acetate composition), the animals receive AI, concluding the second Ovsynch phase. […] The experimental protocol is shown in the diagram of FIG. 2. Statistical analyses were performed with SAS (SAS Institute, 2006). Variables with a binomial distribution, such as P/AI and percentage of animals with CL regression, were analyzed by logistic regression using the LOGISTIC procedure. One-tailed comparisons were utilized throughout the study for comparison of the effect of an additional cloprostenol sodium injection on CL regression and animals pregnant to the FTAI. Continuous variables were analyzed using ANOVA with logistic regression utilized to compare the relationship between circulating P4 and the binomial traits. Animals with ≦2.0 ng/mL P4 on day of PGF were removed from the analysis (n=29; 13 primiparous, 16 multiparous) due to lack of synchronization to the double Ovsynch protocol. Therefore, all analyses were done with a total of 344 lactating dairy cows (n=159 primiparous; n=185 multiparous). Statistical differences were considered significant for P≦0.05 and as a tendency for P≦0.15.
smiles,measurement,setting,value
O=C(O)CCC/C=C\CC1C(O)CC(O)C1/C=C/C(O)COc1cccc(Cl)c1 (stereo not shown) [cloprostenol sodium],"Effect of PGF, relative difference in P/AI (two minus one, divided by one)",multiparous,18.9% (P = 0.15)
same,"Pregnant/AI, % (n/n)","one injection, Quartile 1, [P4] 2.0-4.8 at first injection",31.0% and 31.0 (13/42) %
same,"Pregnant/AI, % (n/n)","one injection, Quartile 2, [P4] 4.9-6.7",40.0% and 40.0 (18/45) %
same,"Pregnant/AI, % (n/n)","one injection, Quartile 3, [P4] 6.8-8.7",47.7% and 47.7 (21/44) %
same,"Pregnant/AI, % (n/n)","one injection, Quartile 4, [P4] 8.8-12",44.4% and 44.4 (20/45) %
same,percentage of cows pregnant/AI (P/AI),"one injection, multiparous",37.5% (36/96)
same,percentage of cows pregnant/AI (P/AI),"one injection, overall",40.1% (72/176)
same,percentage of cows pregnant/AI (P/AI),"one injection, primiparous",45.0% (36/80)
same,P/AI,one injection,44.0%
same,"Effect of PGF, relative difference in P/AI (two minus one, divided by one)",overall,15.2% (P = 0.13)
same,"Effect of PGF, relative difference in P/AI (two minus one, divided by one)",primiparous,7.11% (P = 0.35)
same,"Pregnant/AI, % (n/n)","two injections, Quartile 1, [P4] 2.0-5.4 at first injection",31.7% and 31.7 (13/41) %
same,"Pregnant/AI, % (n/n)","two injections, Quartile 2, [P4] 5.5-7.0",46.7% and 46.7 (21/45) %
same,"Pregnant/AI, % (n/n)","two injections, Quartile 3, [P4] 7.1-8.6",55.8% and 55.8 (24/43) %
same,"Pregnant/AI, % (n/n)","two injections, Quartile 4, [P4] 8.7-12",56.4% and 56.4 (22/39) %
same,percentage of cows pregnant/AI (P/AI),"two injections, multiparous",44.6% (41/89)
same,percentage of cows pregnant/AI (P/AI),"two injections, overall",46.2% (80/168)
same,percentage of cows pregnant/AI (P/AI),"two injections, primiparous",48.2% (39/79)
same,P/AI,two injections,52.8%
